From patent US9408925B2, “Hyperpolarized lactate contrast agent for determination of LDH activity” (GE Healthcare Limited, priority 2010, dated 2016)

Tests used:
[1] = T1 estimated from series of heteronuclear 13C/1H double echo spectra of hyperpolarized equimolar lactate mixture; assay type: physicochemical; details: 10 mM, multiple double echo spectra (FIG. 6)
Experimental: L-[1-^13C1] lactate was hyperpolarized using the DMSO preparation described in (Chen, A. P., et al. Feasibility of using hyperpolarized [1-C-13] lactate as a substrate for in vivo metabolic C-13 MRSI studies. Magnetic Resonance Imaging 26, 721-726 (2008)) with added Gd^3+. Briefly, 70 mg of a ˜50% w/w sodium L-[1-^13C1] lactate solution (0.31 mmol) (Sigma Aldrich, Gillingham, UK) is added to 27 mg DMSO (0.36 mmol) (Sigma Aldrich, Gillingham, UK), 2 mg OX 63 radical (1.4 μmol)(GE Healthcare) and 2.7 mg of a 50 mmol/L solution of Dotarem Gd^3+ chelate (Guerbet, Roissy, France). For in vitro experiments, one third of the resulting solution is polarised to the maximum at the optimal microwave frequency. Once the polarisation is at a maximum, the dissolution is performed with 6 mL of a 40 mmol/L Tris based buffer (pH=7.6) with added 100 mg/L EDTA. The final concentration of hyperpolarised L-[1-^13C1] lactate is then approximately 17 mmol/L. Acquisition of hetero-nuclear ^13C/^1H double echo spectra (TE=300 ms), with and without a 180° ^1H pulse, gave the spectra shown in FIG. 4.
An equimolar mixture of L-[1-^13C1] lactate and L-[1-^13C1, 2-^2H1] lactate was prepared and polarized to ˜26+/−0.5% (n=2). The final lactate concentration in the NMR tube was 10 mM.
Spectra were acquired with and without the 180° ^1H pulse. […]

[2] = 13C T1 and T2 relaxation of non-polarized lactate samples (10 mM) at 9.4 T; assay type: physicochemical
Experimental: For FIG. 3, the samples contained 10 mM of either L-[1-^13C1, 2-^2H1] lactate or L-[1-^13C1] lactate (non-polarized). The T1 of the deuterated lactate was 55.8+/−2.2 s (n=1) and the T2 1.33+/−0.10 s (n=4) and the T1 of the C2 protonated lactate was 46.9+/−4.0 s (n=1) and the T2 1.49+/−0.13 s (n=2) (at 9.4 T). Heteronuclear ^13C/^1H double echo spectra were acquired using a 10 μs 90° ^13C pulse, a 5 ms adiabatic 180° ^13C pulse (bandwidth ˜2 kHz) and a 10 ms adiabatic ^1H pulse (bandwidth ˜1 kHz), which was centered on either the C2 or C3 lactate proton resonances (FIG. 2B). The TR was 20 s. Initial dummy scans produced a steady state z magnetization. The spectral bandwidth was 8 kHz and data were collected into 2048 complex points. Phase and amplitude corrected peak integrals for the lactate ^13C resonance were measured. The echo time is equivalent to 2τ.

Row | SMILES | estimated T1 [1] | T1 [2] | T2 [2]
1 | [2H][C@@](C)(O)[13C](=O)O [L-[1-^13C1,2-^2H1] lactate, L-[1-^13C, 2-^2H] Lactate] | 27 s | 55.8 ± 2.2 s | 1.33 ± 0.10 s
2 | C[C@H](O)[13C](=O)[O-].[Na+] [L-[1-^13C1] lactate, Sodium L-[1-^13C1] lactate] | 25 s | 46.9 ± 4.0 s | 1.49 ± 0.13 s
